Test results reported in patent US20250312258A1, “2,3-PYRROLIDINEDIONE CONJUGATES AND METHODS OF USING THEREOF” (North Carolina State University, priority 2022, published 2025).
Converted amounts (≈) assume the structure as drawn. Read-outs that look alike come from different tables or passages of the source.

Tests used:
Format in all cases: cell-based
[1] = test system: MSSA; assay: MIC against MSSA strain panel; details: Staphylococcus aureus, the 4th table
[2] = test system: ATCC 29212 E. faecalis; assay: MIC against ATCC 29212 E. faecalis
[3] = test system: S. pneumoniae; assay: MIC against S. pneumoniae strain panel; details: Streptococcus pneumoniae
[4] = test system: Group A Strep; assay: MIC against Group A Strep strain panel
[5] = test system: Group B Strep; assay: MIC against Group B Strep strain panel
[6] = test system: E. coli; assay: MIC against E. coli strains

In the case of CN[C@H](CC(C)C)C(=O)N[C@H]1C(=O)N[C@@H](CC(N)=O)C(=O)N[C@H]2C(=O)N[C@H]3C(=O)N[C@H](C(=O)N[C@H](C(=O)O)c4cc(O)cc(O)c4-c4cc3ccc4O)[C@H](O)c3ccc(c(Cl)c3)Oc3cc2cc(c3O[C@@H]2O[C@H](CO)[C@@H](O)[C@H](O)[C@H]2O[C@H]2C[C@](C)(N)[C@H](O)[C@H](C)O2)Oc2ccc(cc2Cl)[C@H]1O [Vancomycin, vancomycin, reference compound], the MIC ([1]; VGP16-100 MSSA) is reported as 0.5 µg/mL (≈ 0.345 µM), the MIC ([1]; VGP16-101 MSSA) is reported as 1 µg/mL (≈ 0.69 µM) and the MIC ([1]; VGP16-116 MSSA) is reported as 0.5 µg/mL (≈ 0.345 µM). For the same compound, the MIC ([1]; VGP16-117 MSSA) was 0.5 µg/mL (≈ 0.345 µM), the MIC ([2]; ATCC 29212 E. faecalis, the 6th table) was 2 µg/mL (≈ 1.38 µM) and the MIC ([2]; Enterococcus faecalis, ATCC29212) was 2 µg/mL (≈ 1.38 µM). For the same compound, the MIC ([3]; ATCC49619, ATCC 49619 S. pneumoniae, CA-MHB w/5% LHB, the 4th table) was 0.25 µg/mL (≈ 0.173 µM), the MIC ([3]; ATCC49619, ATCC 49619 S. pneumoniae, the 7th table) was ≤ 0.125 µg/mL and the MIC ([3]; CO314937 S. pneumoniae, CA-MHB w/5% LHB, the 4th table) was 0.25 µg/mL (≈ 0.173 µM). The MIC ([3]; CT3-5008 S. pneumoniae, the 7th table) was 0.25 µg/mL (≈ 0.173 µM), the MIC ([3]; CT3-5803 S. pneumoniae, the 7th table) was 0.25 µg/mL (≈ 0.173 µM) and the MIC ([3]; CT3-8501 S. pneumoniae, the 7th table) was 0.25 µg/mL (≈ 0.173 µM). The MIC ([3]; CT4-3048 S. pneumoniae, the 7th table) was 0.5 µg/mL (≈ 0.345 µM), the MIC ([3]; CT4-9046 S. pneumoniae, the 7th table) was 0.25 µg/mL (≈ 0.173 µM) and the MIC ([3]; CT4-9693 S. pneumoniae, the 7th table) was 0.25 µg/mL (≈ 0.173 µM). The MIC ([3]; CT5-6541 S. pneumoniae, the 7th table) was 0.25 µg/mL (≈ 0.173 µM), the MIC ([3]; CT5-8032 S. pneumoniae, the 7th table) was 0.5 µg/mL (≈ 0.345 µM) and the MIC ([3]; CT5-9124 S. pneumoniae, the 7th table) was 0.25 µg/mL (≈ 0.173 µM). The MIC ([3]; CT6-0670 S. pneumoniae, the 7th table) was 0.5 µg/mL (≈ 0.345 µM), the MIC ([3]; CT6-7691 S. pneumoniae, the 7th table) was 0.25 µg/mL (≈ 0.173 µM) and the MIC ([3]; CT0200-2241 S. pneumoniae, the 7th table) was 0.25 µg/mL (≈ 0.173 µM). The MIC ([3]; CT0200-2730 S. pneumoniae, the 7th table) was 0.25 µg/mL (≈ 0.173 µM), the MIC ([3]; MD77773 S. pneumoniae, CA-MHB w/5% LHB, the 4th table) was 0.5 µg/mL (≈ 0.345 µM) and the MIC [4] was 0.25 µg/mL (≈ 0.173 µM). The MIC ([4]; 2007-11 Group A Strep, the 8th table) was 0.25 µg/mL (≈ 0.173 µM), the MIC ([4]; 2007-28 Group A Strep, the 8th table) was 0.25 µg/mL (≈ 0.173 µM) and the MIC ([4]; 2007-49 Group A Strep, the 8th table) was 0.25 µg/mL (≈ 0.173 µM). It also gave an MIC ([4]; 2007-73 Group A Strep, the 8th table) of 0.25 µg/mL (≈ 0.173 µM), an MIC ([4]; 2007-107 Group A Strep, the 8th table) of 0.25 µg/mL (≈ 0.173 µM) and an MIC ([4]; 2007-1101 Group A Strep, the 8th table) of 0.25 µg/mL (≈ 0.173 µM). It also gave an MIC ([4]; 2008-06 Group A Strep, the 8th table) of 0.25 µg/mL (≈ 0.173 µM), an MIC ([4]; 2008-45 Group A Strep, the 8th table) of 0.25 µg/mL (≈ 0.173 µM) and an MIC ([4]; 2008-818 Group A Strep, CA-MHB w/5% LHB, the 4th table) of 0.25 µg/mL (≈ 0.173 µM). It also gave an MIC ([4]; 2008-1565 Group A Strep, the 8th table) of 0.25 µg/mL (≈ 0.173 µM), an MIC ([4]; 2008-1692 Group A Strep, the 8th table) of 0.25 µg/mL (≈ 0.173 µM) and an MIC ([4]; 2009-8 Group A Strep, the 8th table) of 0.25 µg/mL (≈ 0.173 µM). It also gave an MIC ([4]; 2009-37 Group A Strep, CA-MHB w/5% LHB, the 4th table) of 0.25 µg/mL (≈ 0.173 µM), an MIC ([4]; 2009-106 Group A Strep, the 8th table) of 0.25 µg/mL (≈ 0.173 µM) and an MIC ([4]; 2009-109 Group A Strep, the 8th table) of 0.25 µg/mL (≈ 0.173 µM). It also gave an MIC ([4]; 2009-114 Group A Strep, the 8th table) of 0.25 µg/mL (≈ 0.173 µM), an MIC ([4]; 2009-136 Group A Strep, the 8th table) of 0.25 µg/mL (≈ 0.173 µM) and an MIC ([5]; 2008-57 Group B Strep, the 9th table) of 0.5 µg/mL (≈ 0.345 µM). For the same compound, the MIC ([5]; 2008-70 Group B Strep, the 9th table) was 0.5 µg/mL (≈ 0.345 µM), the MIC ([5]; 2008-87 Group B Strep, CA-MHB w/5% LHB, the 4th table) was 0.5 µg/mL (≈ 0.345 µM) and the MIC ([5]; 2008-115 Group B Strep, the 9th table) was 0.5 µg/mL (≈ 0.345 µM). The MIC ([5]; 2009-20 Group B Strep, the 9th table) was 0.5 µg/mL (≈ 0.345 µM), the MIC ([5]; 2009-40 Group B Strep, the 9th table) was 0.5 µg/mL (≈ 0.345 µM) and the MIC ([5]; 2009-43 Group B Strep, the 9th table) was 0.5 µg/mL (≈ 0.345 µM). For the same compound, the MIC ([5]; 2009-51 Group B Strep, the 9th table) was 0.5 µg/mL (≈ 0.345 µM), the MIC ([5]; 2009-57 Group B Strep, the 9th table) was 0.5 µg/mL (≈ 0.345 µM) and the MIC ([5]; 2009-59 Group B Strep, the 9th table) was 0.5 µg/mL (≈ 0.345 µM). The MIC ([5]; 2009-60 Group B Strep, the 9th table) was 0.5 µg/mL (≈ 0.345 µM), the MIC ([5]; 2009-61 Group B Strep, CA-MHB w/5% LHB, the 4th table) was 0.5 µg/mL (≈ 0.345 µM) and the MIC ([5]; 2009-62 Group B Strep, CA-MHB w/5% LHB, the 4th table) was 0.5 µg/mL (≈ 0.345 µM). For the same compound, the MIC ([5]; J4182 Group B Strep, the 9th table) was 0.25 µg/mL (≈ 0.173 µM), the MIC ([5]; J4183 Group B Strep, the 9th table) was 0.5 µg/mL (≈ 0.345 µM) and the MIC ([5]; J4185 Group B Strep, the 9th table) was 0.5 µg/mL (≈ 0.345 µM). For the same compound, the MIC ([5]; J4186 Group B Strep, the 9th table) was 0.5 µg/mL (≈ 0.345 µM), the MIC ([5]; J4222 Group B Strep, the 9th table) was 0.5 µg/mL (≈ 0.345 µM) and the MIC ([6]; AR-137 E. coli, the 4th table) was >64 µg/mL. For the same compound, the MIC ([6]; Escherichia coli) was > 64 µg/mL and the MIC ([6]; Escherichia coli, ATCC25922) was > 64 µg/mL.
